BindingDB's records for doi:10.1016/j.chembiol.2012.04.012 (Albert Einstein College of Medicine, 2012)

Target: T1, Hypoxanthine-guanine-xanthine phosphoribosyltransferase (Plasmodium falciparum (isolate FCR-3 / Gambia), UniProt P20035)
T1 sequence (P20035 whole entry): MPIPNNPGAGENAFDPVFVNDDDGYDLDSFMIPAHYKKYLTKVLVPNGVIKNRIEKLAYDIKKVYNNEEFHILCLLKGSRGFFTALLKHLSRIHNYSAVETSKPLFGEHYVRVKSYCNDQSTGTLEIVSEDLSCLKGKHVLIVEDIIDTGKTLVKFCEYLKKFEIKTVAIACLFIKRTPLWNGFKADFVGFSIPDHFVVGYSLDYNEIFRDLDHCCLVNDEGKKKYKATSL
Assay: Inhbition Assay
Conditions: pH 7.6; 37 °C
Method: PfHGXPRT activity was measured using spectrophotometric assay observing the conversion of xanthine and 5-phospho-alpha-D-ribose-1-pyrophosphate to xanthosine-5'-monophosphate and inorganic pyrophosphate (PPi) at 247nm or the conversion of guanine and PRPP to guanosine-5'-monophosphate and PPi on a Varian Cary 100 spectrophotometer.

Ki [nM] | SMILES
0.65 | O=c1[nH]cnc2c(N[C@H](CO)CCP(=O)(O)O)c[nH]c12 [HGXPRT Inhibitor, 3]
10.6 | O=c1[nH]cnc2c(NCCCP(=O)(O)O)c[nH]c12 [HGXPRT Inhibitor, 2]
